Laboratory results taken from the supplement of paper PMC11061612.

Assays:
Capivasertib = compound: C1CN(CCC1(C(=O)N[C@@H](CCO)C2=CC=C(C=C2)Cl)N)C3=NC=NC4=C3C=CN4 [Capivasertib]; details: max 10 µM
Method in brief: (§1)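 After 24 hours at 37°C and 5% CO2 in 1536-well plates holding 7.5 μl of DMEM/F12 or RPMI with 10% FBS, cancer cell lines were dosed for 72 hours, with final DMSO typically 0.2%. Viability came from CellTiter-Glo 2.0 luminescence, scaled between the means of blank wells and DMSO wells. A non-linear mixed effects model fitted a two-parameter logistic curve to each dose response to give the single-agent IC50.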

AZD1775 = compound: C=CCn1c(=O)c2cnc(Nc3ccc(N4CCN(C)CC4)cc3)nc2n1-c1cccc(C(C)(C)O)n1 [AZD1775]; details: max 3 µM
Method in brief: as §1

Trametinib = compound: CC(=O)Nc1cccc(-n2c(=O)n(C3CC3)c(=O)c3c(Nc4ccc(I)cc4F)n(C)c(=O)c(C)c32)c1 [Trametinib]; details: max 1 µM
Method in brief: as §1

Palbociclib = compound: CC(=O)c1c(C)c2cnc(Nc3ccc(N4CCNCC4)cn3)nc2n(C2CCCC2)c1=O [Palbociclib]; details: max 10 µM
Method in brief: as §1

AZD1390 = compound: CC(C)n1c(=O)n(C)c2cnc3cc(F)c(-c4ccc(OCCCN5CCCCC5)nc4)cc3c21 [AZD1390]; details: max 0.3 µM
Method in brief: as §1

Venetoclax = compound: CC1(C)CCC(CN2CCN(c3ccc(C(=O)NS(=O)(=O)c4ccc(NCC5CCOCC5)c([N+](=O)[O-])c4)c(Oc4cnc5[nH]ccc5c4)c3)CC2)=C(c2ccc(Cl)cc2)C1 [Venetoclax]; details: max 1 µM
Method in brief: as §1

Dasatinib = compound: CC1=C(C(=CC=C1)Cl)NC(=O)C2=CN=C(S2)NC3=CC(=NC(=N3)C)N4CCN(CC4)CCO [Dasatinib]; details: max 2 µM
Method in brief: as §1

SG3199 = compound: CC1=CN2[C@@H](C1)C=NC3=CC(=C(C=C3C2=O)OC)OCCCCCOC4=C(C=C5C(=C4)N=C[C@@H]6CC(=CN6C5=O)C)OC [SG3199]; details: max 0.001 µM
Method in brief: as §1

AZD2811 = compound: CCN(CCO)CCCOc1ccc2c(Nc3cc(CC(=O)Nc4cccc(F)c4)[nH]n3)ncnc2c1 [AZD2811]; details: max 1 µM
Method in brief: as §1

SN-38 = compound: CCc1c2c(nc3ccc(O)cc13)-c1cc3c(c(=O)n1C2)COC(=O)[C@]3(O)CC [SN-38]; details: max 0.3 µM
Method in brief: as §1

AZD0156 = compound: CN(C)CCCOc1ccc(-c2ccc3ncc4c(c3c2)n(C2CCOCC2)c(=O)n4C)cn1 [AZD0156]; details: max 3 µM
Method in brief: as §1

AZD4320 = compound: CN(CC[C@H](CSC1=CC=CC=C1)NC2=C(C=C(C=C2)S(=O)(=O)NC(=O)C3=CC=C(C=C3)N4CCC(CC4)[C@H](C5=CC=CC=C5C6=CC=C(C=C6)Cl)O)S(=O)(=O)C(F)(F)F)CCO [AZD4320]; details: max 1 µM
Method in brief: as §1

Alisertib = compound: COc1cc(Nc2ncc3c(n2)-c2ccc(Cl)cc2C(c2c(F)cccc2OC)=NC3)ccc1C(=O)O [Alisertib]; details: max 10 µM
Method in brief: as §1

Gefitinib = compound: COc1cc2ncnc(Nc3ccc(F)c(Cl)c3)c2cc1OCCCN1CCOCC1 [Gefitinib]; details: max 10 µM
Method in brief: as §1

Prexasertib = compound: COc1cccc(OCCCN)c1-c1cc(Nc2cnc(C#N)cn2)n[nH]1 [Prexasertib]; details: max 1 µM
Method in brief: as §1

Doxorubicin = compound: COc1cccc2c1C(=O)c1c(O)c3c(c(O)c1C2=O)C[C@@](O)(C(=O)CO)C[C@@H]3O[C@H]1C[C@H](N)[C@H](O)[C@H](C)O1 [Doxorubicin]; details: max 1 µM
Method in brief: as §1

AZD5153 = compound: COc1nnc2ccc(N3CCC(c4ccc(OCCN5CCN(C)C(=O)[C@H]5C)cc4)CC3)nn12 [AZD5153]; details: max 1 µM
Method in brief: as §1

Lapatinib = compound: CS(=O)(=O)CCNCc1ccc(-c2ccc3ncnc(Nc4ccc(OCc5cccc(F)c5)c(Cl)c4)c3c2)o1 [Lapatinib]; details: max 10 µM
Method in brief: as §1

AZD8186 = compound: C[C@@H](Nc1cc(F)cc(F)c1)c1cc(C(=O)N(C)C)cc2c(=O)cc(N3CCOCC3)oc12 [AZD8186]; details: max 3 µM
Method in brief: as §1

Crizotinib = compound: C[C@@H](Oc1cc(-c2cnn(C3CCNCC3)c2)cnc1N)c1c(Cl)ccc(F)c1Cl [Crizotinib]; details: max 10 µM
Method in brief: as §1

Savolitinib = compound: C[C@@H](c1ccc2nccn2c1)n1nnc2ncc(-c3cnn(C)c3)nc21 [Savolitinib]; details: max 1 µM
Method in brief: as §1

AZD6738 = compound: C[C@@H]1COCCN1C2=NC(=NC(=C2)C3(CC3)[S@](=N)(=O)C)C4=C5C=CNC5=NC=C4 [AZD6738]; details: max 10 µM
Method in brief: as §1

AZD5991 = compound: Cc1c2c(nn1C)CSCc1cc(n(C)n1)CSc1cc(c3ccccc3c1)OCCCc1c(C(=O)O)n(C)c3c-2c(Cl)ccc13 [AZD5991]; details: max 1 µM
Method in brief: as §1

AZD7648 = compound: Cc1cc2ncnn2cc1Nc1ncc2c(n1)n(C1CCOCC1)c(=O)n2C [AZD7648]; details: max 10 µM
Method in brief: as §1

Taselisib = compound: Cc1nc(-c2cn3c(n2)-c2ccc(-c4cnn(C(C)(C)C(N)=O)c4)cc2OCC3)n(C(C)C)n1 [Taselisib]; details: max 10 µM
Method in brief: as §1

Selumetinib = compound: Cn1cnc2c(F)c(Nc3ccc(Br)cc3Cl)c(C(=O)NOCCO)cc21 [Selumetinib]; details: max 10 µM
Method in brief: as §1

MK-2206 = compound: NC1(c2ccc(-c3nc4ccn5c(=O)[nH]nc5c4cc3-c3ccccc3)cc2)CCC1 [MK-2206]; details: max 10 µM
Method in brief: as §1

Olaparib = compound: O=C(c1cc(Cc2n[nH]c(=O)c3ccccc23)ccc1F)N1CCN(C(=O)C2CC2)CC1 [Olaparib]; details: max 10 µM
Method in brief: as §1

Row | Cell Line | IC50, cell viability 72 h (Capivasertib) | IC50, cell viability 72 h (AZD1775) | IC50, cell viability 72 h (Trametinib) | IC50, cell viability 72 h (Palbociclib) | IC50, cell viability 72 h (AZD1390) | IC50, cell viability 72 h (Venetoclax) | IC50, cell viability 72 h (Dasatinib) | IC50, cell viability 72 h (SG3199) | IC50, cell viability 72 h (AZD2811) | IC50, cell viability 72 h (SN-38) | IC50, cell viability 72 h (AZD0156) | IC50, cell viability 72 h (AZD4320) | IC50, cell viability 72 h (Alisertib) | IC50, cell viability 72 h (Gefitinib) | IC50, cell viability 72 h (Prexasertib) | IC50, cell viability 72 h (Doxorubicin) | IC50, cell viability 72 h (AZD5153) | IC50, cell viability 72 h (Lapatinib) | IC50, cell viability 72 h (AZD8186) | IC50, cell viability 72 h (Crizotinib) | IC50, cell viability 72 h (Savolitinib) | IC50, cell viability 72 h (AZD6738) | IC50, cell viability 72 h (AZD5991) | IC50, cell viability 72 h (AZD7648) | IC50, cell viability 72 h (Taselisib) | IC50, cell viability 72 h (Selumetinib) | IC50, cell viability 72 h (MK-2206) | IC50, cell viability 72 h (Olaparib)
1 | HCC1500 (Breast Carcinoma) | > 10 µM | 2900 nM | > 1000 nM | > 10 µM | > 300 nM | 291 nM | > 2000 nM | > 1 nM | > 1000 nM | 213 nM | > 3000 nM | 45.2 nM | > 10 µM | > 10 µM | > 1000 nM | > 1000 nM | > 1000 nM | > 10 µM | > 3000 nM | > 10 µM | > 1000 nM | > 10 µM | > 1000 nM | > 10 µM | > 10 µM | > 10 µM | > 10 µM | > 10 µM
2 | HCC1937 (Breast Carcinoma) | > 10 µM | 643 nM | > 1000 nM | > 10 µM | > 300 nM | > 1000 nM | > 2000 nM | > 1 nM | > 1000 nM | > 300 nM | > 3000 nM | > 1000 nM | > 10 µM | > 10 µM | 318 nM | > 1000 nM | > 1000 nM | > 10 µM | > 3000 nM | > 10 µM | > 1000 nM | > 10 µM | > 1000 nM | > 10 µM | 9.15 µM | > 10 µM | > 10 µM | > 10 µM
3 | KOPN-8 (B-Lymphoblastic Leukemia) | 4.98 µM | 314 nM | 36.9 nM | 2.62 µM | > 300 nM | 50 nM | > 2000 nM | > 1 nM | 37.7 nM | 2.7 nM | > 3000 nM | 11 nM | 0.0234 µM | > 10 µM | 19.8 nM | 106 nM | 28.5 nM | > 10 µM | > 3000 nM | 2.77 µM | > 1000 nM | 0.725 µM | 43.4 nM | > 10 µM | > 10 µM | 6.21 µM | 8.59 µM | 6.85 µM
4 | LC-1-sq (Squamous Cell Lung Carcinoma) | > 10 µM | 294 nM | > 1000 nM | > 10 µM | > 300 nM | > 1000 nM | > 2000 nM | > 1 nM | > 1000 nM | > 300 nM | > 3000 nM | > 1000 nM | > 10 µM | > 10 µM | 16.4 nM | > 1000 nM | 490 nM | > 10 µM | > 3000 nM | > 10 µM | > 1000 nM | 2.13 µM | > 1000 nM | > 10 µM | > 10 µM | > 10 µM |  | > 10 µM
5 | NCI-H650 (Lung Adenocarcinoma) | > 10 µM | 2650 nM | > 1000 nM | > 10 µM | > 300 nM | > 1000 nM | > 2000 nM | > 1 nM | > 1000 nM | 100 nM | > 3000 nM | > 1000 nM | > 10 µM | > 10 µM | 283 nM | > 1000 nM | > 1000 nM | > 10 µM | > 3000 nM | > 10 µM | > 1000 nM | > 10 µM | > 1000 nM | > 10 µM | > 10 µM | > 10 µM | > 10 µM | > 10 µM
6 | NCI-H1092 (Small Cell Lung Carcinoma) | > 10 µM | 2940 nM | > 1000 nM | > 10 µM | > 300 nM | > 1000 nM | > 2000 nM | > 1 nM | > 1000 nM | > 300 nM | > 3000 nM | 152 nM | > 10 µM | > 10 µM | 144 nM | > 1000 nM | > 1000 nM | > 10 µM | > 3000 nM | > 10 µM | > 1000 nM | > 10 µM | 819 nM | > 10 µM | > 10 µM | > 10 µM | > 10 µM | > 10 µM
7 | NCI-H1838 (Lung Adenocarcinoma) | > 10 µM | 2440 nM | > 1000 nM | > 10 µM | > 300 nM | > 1000 nM | > 2000 nM | > 1 nM | > 1000 nM | > 300 nM | > 3000 nM | > 1000 nM | > 10 µM | > 10 µM | 212 nM | > 1000 nM | > 1000 nM | > 10 µM | > 3000 nM | > 10 µM | > 1000 nM | > 10 µM | > 1000 nM | > 10 µM | 5.86 µM | > 10 µM | > 10 µM | > 10 µM
8 | NCI-H2122 (Lung Adenocarcinoma) | 4.95 µM | 547 nM | 13.8 nM | 1.91 µM | > 300 nM | > 1000 nM | > 2000 nM | > 1 nM | 347 nM | 40.5 nM | > 3000 nM | > 1000 nM | 0.065 µM | 5.67 µM | 29.1 nM | > 1000 nM | 115 nM | 6.23 µM | > 3000 nM | 1.92 µM | > 1000 nM | 1.14 µM | > 1000 nM | > 10 µM | 0.373 µM | 0.496 µM |  | > 10 µM
9 | OACM5-1 (Esophageal Adenocarcinoma) | 1.99 µM | 2550 nM | > 1000 nM | 6.86 µM | > 300 nM | > 1000 nM | > 2000 nM | > 1 nM | > 1000 nM | 46.4 nM | > 3000 nM | > 1000 nM | 3.85 µM | > 10 µM | 134 nM | 615 nM | 391 nM | 8.07 µM | > 3000 nM | 4.4 µM | > 1000 nM | 9.88 µM | 58.2 nM | > 10 µM | 0.418 µM | > 10 µM |  | > 10 µM
